Here are results for one molecule from PMC9317966, “Structure-function analysis of the AMPK activator SC4 and identification of a potent pan AMPK activator” (Biochemical Journal, 2022).

The experiment deals with HEK293T/17 cells expressing γ1-R299G AMPK. Description: α-Thr172 phosphorylation immunoblot, HEK293T/17 cells expressing AMP-insensitive γ1 mutant R299G. In kind it is cell-based. Conditions: 2.5 µM. On the procedure: To explore this dose-dependent response, we used HEK293T/17 cells transiently expressing WT γ1AMPK or the AMP-insensitive γ1 mutant R299G (Supplementary Figure S4A). […] One explanation is that 2.5 µM MK-8722 caused indirect activation of AMPK (α-Thr172 phosphorylation) by inducing a metabolic stress leading to rises in AMP/ATP and ADP/ATP ratios. We examined the effect of MK-8722 incubation on C2C12 mitochondrial function (Supplementary Figure S4B–I).
HEK293T/17, HEK293T, COS7, HeLa and PC3 cells (ATCC) were maintained in Dulbecco's Modified Eagle's medium (DMEM; Sigma–Aldrich) supplemented with 10% fetal bovine serum (FBS; Assay Matrix) at 37°C and 5% CO2. Primary hepatocytes from wild type mice were prepared using the collagenase perfusion method and cultured as described previously. […]
All samples were separated on 12% SDS–PAGE gels and transferred to an Immobilon-FL PVDF membrane (Merck Millipore). […] Immunoblots were visualised on the Odyssey Infrared Imaging System (LI-COR Biosciences) and immunoreactive bands analysed and quantified using Image Studio Software (LI-COR Biosciences).
Lysates were assessed for phosphorylation of AMPKα-Thr172 by immunoblot. n = 3, data presented as mean T172 phosphorylation (arbitrary units) ± SEM. […] (J) Lysates were assessed for total protein content following the respiration assay.

With `O[C@@H]1CO[C@H]2[C@@H]1OC[C@H]2Oc1nc2nc(-c3ccc(-c4ccccc4)cc3)c(Cl)cc2[nH]1` [MK-8722, reference compound], the “decrease of induced α-Thr172 phosphorylation relative to WT γ1 cells” value was about 55%. In addition, the “effect on phosphorylation of α-Thr172” value (60 min) is recorded as “largely abrogated”.
